From a melting point compilation (Tetko et al.)

SMILES	melting point
O=[N+]([O-])c1cc(NS(=O)(=O)c2ccc3c(c2)OCCCO3)ccc1F	145 to 147 °C
N#Cc1cc(Cl)ccn1	81 to 85 °C
FC(F)Oc1ccc(-c2nnc(S)o2)cc1	121 to 123 °C
C=CCNC(=O)c1cccc(S(=O)(=O)Cl)c1	62 to 64 °C
Nc1ccc(S(=O)(=O)NCc2ccc(Cl)cc2)cc1	174 to 176 °C
Cc1sc(N)nc1Cc1ccccc1	75 to 77 °C
Cc1ccc(S(=O)(=O)NCc2ccco2)cc1C(=O)O	178 to 180 °C
Nc1cc([N+](=O)[O-])ccc1Nc1cccc(C(F)(F)F)c1	165 to 167 °C
NS(=O)(=O)c1cc(F)cc([N+](=O)[O-])c1	184 to 186 °C
O=Cc1ccc(-n2cncn2)c(F)c1	127 to 129 °C
CC(C)(C#N)N1CCN(C(C)(C)C#N)CC1	182 to 184 °C
Oc1cccc(-c2nnco2)c1	211 to 213 °C
Nc1nc(-c2cccc(Br)c2)cs1	121 to 125 °C
COc1ccnc(NN)n1	119 to 121 °C
Cc1ccc(C(=O)C(=O)O)cc1	176 to 178 °C
COc1ccc2c(c1)OCC2=O	119 to 121 °C
NC(=O)c1csc(C=O)c1	155 to 157 °C
O=C(O)CSc1ncnc2scc(-c3ccccc3)c12	186 to 188 °C
CSCCC(NC(=O)COc1ccccc1)C(=O)O (stereo not given)	122 to 130 °C
CC(O)c1ccccc1-c1ccccc1 (stereo not given)	104 to 106 °C
CCc1nnsc1C(=O)O	125 to 133 °C
Cc1ncsc1-c1nc(CCl)no1	82 to 84 °C
O=C1C(Br)=CC2C1C1C=CC2(Br)C12OCCO2 (stereo not given)	171 to 173 °C
O=C(O)c1cc(-c2ccccc2F)nc2onc(C3CC3)c12	182 to 184 °C
Cc1cc(N2CCSCC2)ccc1N	79 to 81 °C

SMILES	melting point
CC(C)(C)c1ccc(Oc2ccc(C=O)cc2[N+](=O)[O-])cc1	156 to 158 °C
Cc1nn2c(CO)c(C)nc2s1	129 to 131 °C
Nc1cc(NC(=O)Cn2cccnc2=O)ccc1F	251 to 253 °C
Oc1ccccc1OCc1ccc(F)cc1	55 to 57 °C
O=C(O)C1CC1C(=O)N1CCN(c2ccccc2)CC1 (stereo not given)	155 to 157 °C
CN(C)S(=O)(=O)c1ccc(C(=O)CBr)cc1	90 to 92 °C
COC(=O)C(=O)CC(=O)c1ccccc1OC	80 to 84 °C
CCOC=C1C(=O)N(c2cccc(C(F)(F)F)c2)C(=O)c2ccccc21	194 to 196 °C
CCN(CC)C(=O)Cn1cccc(C(=O)O)c1=O	114 to 116 °C
Cc1csc(-c2cccc(C(=O)O)c2)n1	192 to 194 °C
CC(=O)N1CCC(CCl)CC1	48 to 50 °C
NC(=O)c1cccc(C(N)=S)c1	210 to 212 °C
CSc1nn(C)c(N)c1C(N)=O	173 to 175 °C
O=C(O)C(F)(F)c1c[nH]c(=O)[nH]c1=O	188 to 190 °C
O=[N+]([O-])c1cnc(Cl)nc1NC1CC1	114 to 116 °C
Cc1cc(C(=O)C(C)Cl)c(C)n1-c1ccccc1 (stereo not given)	78 to 82 °C
Cc1cc(Cl)ccc1OCCCC(=O)NN	37 to 39 °C
Nc1nnc(-c2cccc3ccccc23)[nH]1	219 to 221 °C
O=C(O)CCCNC(=O)NC1CCCCC1	153 to 155 °C
O=C(O)C(=O)NCCCc1ccccc1	120 to 122 °C
CS(=O)(=O)CCC1NC(=O)NC1=O (stereo not given)	160 to 162 °C
O=C(O)C(O)c1cc(Cl)cc(Cl)c1 (stereo not given)	99 to 101 °C
CC(=O)Nc1cc(S(=O)(=O)Cl)ccc1F	161 to 163 °C
c1ccc(OCc2nc3ccccc3[nH]2)cc1	163 to 165 °C
O=C(NCCCc1ccccc1)c1ccccc1O	77 to 79 °C

SMILES	melting point
CC(C)N(C)S(=O)(=O)c1ccc(F)c(C(=O)O)c1	194 to 196 °C
CCOC(=O)CCc1nc(CC(=O)NC)no1	84 to 86 °C
O=C1COc2ncc(C(=O)O)cc2N1	319 to 321 °C
Cc1cc(Cl)c(CO)c(Cl)n1	81 to 83 °C
Cc1c(Br)cc(C(=O)O)cc1S(=O)(=O)Cl	183 to 185 °C
Nc1ccccc1C(=O)NCC(F)(F)F	125 to 130 °C
O=C(NCCO)c1ccc(Br)cn1	98 to 100 °C
Cc1cc(O)n(C(C)(C)C)n1	125 to 127 °C
CN(C)C(=O)c1cccc(O)c1	126 to 128 °C
CC(C)(C)OC(=O)c1ccc(C#N)cc1	74 to 76 °C
Cc1cc(Cl)nc2c(C(C)C)cccc12	43 to 45 °C
Nc1nc(CN2CCOCC2)cs1	145 to 150 °C
NCc1ccccc1N1CCCC(C(N)=O)C1 (stereo not given)	97 to 99 °C
NC(=O)C1(Br)CCC1	150 to 152 °C
Cc1cc(C)cc(N(CCC#N)C(=O)CCl)c1	67 to 69 °C
CCC1=NN(C)C(=O)C1	89 to 91 °C
CCNc1ccc(C#N)cn1	88 to 90 °C
O=C(CCl)c1ccc2c(c1)CCCC2	62 to 64 °C
Cc1sc2nc(-c3cccs3)nc(Cl)c2c1C	130 to 137 °C
Sc1ccc(Cl)cn1	214 to 216 °C
Cc1ccc(S(=O)(=O)NC2CC2)cc1C(=O)O	252 to 257 °C
CC(C)(C(=O)O)c1ccc([N+](=O)[O-])cc1	129 to 131 °C
CS(=O)(=O)c1cccc(Cl)c1C(N)=O	200 to 202 °C
Nc1cccc(C(=O)N2CCCC(CO)C2)c1 (stereo not given)	115 to 117 °C
ClCc1nc(-c2ccccc2Cl)no1	37 to 39 °C

SMILES	melting point
O=C(O)c1cc(Cl)cc([N+](=O)[O-])c1	146 to 148 °C
CCc1ccccc1N1CC(C(=O)O)CC1=O (stereo not given)	99 to 101 °C
CC(=O)Nc1ccc(Br)cc1[N+](=O)[O-]	104 to 106 °C
Cc1ccc(NC(N)=O)cc1F	190 to 192 °C
NC(NO)=C1C=CC=NC1=O	176 to 178 °C
CC1CNCC(C)N1C(=O)OC(C)(C)C (stereo not given)	61 to 63 °C
COc1ccc(N)c2cccnc12	155 to 157 °C
COc1ccc(N)cc1-n1cnnn1	139 to 141 °C
Cc1c(C(=O)O)cc(F)cc1S(=O)(=O)Cl	121 to 123 °C
COc1nc(Cl)c(C=O)n1C	105 to 107 °C
NC(=O)N1CCOCC1	106 to 108 °C
COc1cc(/C=C/C(=O)O)ccc1OC(C)C	83 to 87 °C
c1ccc2c(c1)nc1n2CCN1	194 to 206 °C
NS(=O)(=O)c1ccc(C(=O)O)c(F)c1	189 to 191 °C
Sc1nnc(C2CCCCC2)o1	81 to 83 °C
Cc1cc(OC(F)F)c(C(=O)O)s1	155 to 157 °C
O=C(O)/C=C/c1cc(Cl)c2c(c1)OCO2	259 to 261 °C
CS(=O)(=O)Nc1cc(F)ccc1C(=O)O	205 to 207 °C
Cc1ccc(C(C)C)c2c1C(=O)CCO2	36 to 38 °C
Nc1ncc(-c2ccc(Br)cc2)[nH]1	194 to 196 °C
O=c1[nH]c2ccc(C(F)(F)F)cc2c(=O)o1	269 to 271 °C
O=C(O)CCc1nc2cc(Cl)ccc2s1	145 to 147 °C
O=C(c1c(Cl)cccc1Cl)N1CCNCC1	149 to 151 °C
O=C(O)c1ccccc1C(=O)N1CCCC1	131 to 133 °C
Cc1cc(C)nc(-n2nc(C)cc2N)n1	173 to 175 °C

SMILES	melting point
Nc1nc2ccc(OCC(F)(F)F)cc2s1	134 to 136 °C
O=C(O)c1c[nH]c2ccc([N+](=O)[O-])cc12	255 to 257 °C
Cc1cccc(N)c1C(=O)N1CCCC1	87 to 89 °C
O=C(O)CC(NC(=O)c1ccccc1)c1ccccc1 (stereo not given)	197 to 199 °C
Nc1sc2c(c1-c1nc3ccccc3[nH]1)CCCC2	175 to 177 °C
Oc1cc(Cl)cnc1Br	144 to 146 °C
COc1ccc(CC(=O)O)cc1S(=O)(=O)N1CCOCC1	116 to 118 °C
NNC(=O)Cc1nc2ccccc2[nH]1	177 to 181 °C
Cn1c(N)nc2c(F)cccc21	163 to 165 °C
O=C(O)c1ccc(F)c(COCC2CC2)c1	69 to 71 °C
Cc1ccc(Oc2cc(C#N)ccn2)cc1C	63 to 65 °C
CC(C)(C)C(=O)N1CCC(=O)CC1	94 to 96 °C
O=C(NC=C(Cl)Cl)c1ccc(Br)cc1	110 to 112 °C
CC(C)(C)OC(=O)N1CC(OCC(=O)O)C1	93 to 95 °C
COc1cc(-c2nnc(CCl)o2)cc(OC)c1OC	121 to 123 °C
O=C(O)c1noc(-c2cccc(F)c2)n1	120 to 122 °C
O=C1NCCC=C1Cl	76 to 78 °C
COc1cc2c(cc1OC)NCC2	103 to 105 °C
Cc1cc(Br)c(C(=O)O)cn1	119 to 121 °C
O=C(O)c1cccc(S(=O)(=O)N2CCN(c3ccc(F)cc3)CC2)c1	129 to 131 °C
Cn1ccnc(N)c1=O	162 to 164 °C
COc1ccccc1C(NC(=O)OC(C)(C)C)C(N)=NO (stereo not given)	185 to 187 °C
CC(=O)c1ccc(N)nc1	107 to 109 °C
CCn1cc(S(=O)(=O)Cl)c([N+](=O)[O-])n1	45 to 47 °C
Cc1c(Cl)ccc2ccc(Cl)nc12	92 to 94 °C

SMILES	melting point
Fc1cc(Br)cc2cc(Br)cnc12	161 to 163 °C
Cc1nc(C(=O)O)c2ccccn12	187 to 189 °C
Cn1c(=O)[nH]cc(C(=O)O)c1=O	233 to 235 °C
O=C(NC1CC1)C(=O)N1CCNCC1	100 to 102 °C
COC(=O)c1ccc2[nH]c(=O)[nH]c2c1	303 to 305 °C
NC(=O)Nc1cccc2ccccc12	284 to 286 °C
O=C1COc2ccc(C(F)(F)F)cc2N1	165 to 167 °C
COc1cccc(-n2c(CC(=O)NN)csc2=NCc2ccco2)c1	151 to 153 °C
Cc1nc(-c2ccc(N)cc2)oc1C	150 to 152 °C
Cc1ccc(Cc2nnc(N)s2)cc1	209 to 211 °C
O=C(O)c1c[nH]nc1C1CCCCC1	269 to 271 °C
Nc1nnc(CC2CCCCC2)s1	250 to 252 °C
Cc1nc2cc(F)cc(C(=O)O)c2nc1C	226 to 228 °C
Cn1cc(Cl)cc1C(=O)O	129 to 131 °C
COC(=O)C(Cl)c1cccc(C#N)c1 (stereo not given)	49 to 51 °C
N#Cc1ccc(N2CCNCC2)c(F)c1	84 to 86 °C
Cc1ccccc1-c1noc(=O)[nH]1	155 to 157 °C
CC(=O)Nc1c[nH]c(C)c1C(=O)O	183 to 185 °C
CN(C)c1ccc(C(=N)N)c(F)c1	133 to 135 °C
COC(=O)c1oc(CCl)cc1C	53 to 55 °C
